In patent US20020152499A1, “Gene encoding a protein involved in the signal transduction cascade leading to systemic acquired resistance in plants” (priority 1996, published 2002):

Tests used:
[1] = system: NIM1 gene; assay: RNA gel blot of NIM1 (gene region 2) mRNA after chemical treatment; conditions: wild-type Ws plants (FIG. 7)
Text: To ascertain which gene region contained the NIM1 gene, gel blots containing RNA isolated from leaf tissue of Ws-0 and the different nim1 mutants following either water or chemical treatment were probed with DNA derived from each of the four gene regions. In these experiments, care was taken to label probes to high specific activity and autoradiographs were exposed for more than 1 week.
Identical Northern blots were made from RNA samples isolated from water-, SA-, BTH- and INA-treated Ws and nim1 lines as previously described in Delaney, et al. (1995). These blots were hybridized with PCR products generated from the four gene regions identified in the 9.9 kb NIM1 gene region (SEQ ID NO:1).
The same RNA samples produced in the induction studies (FIG. 3) were also probed with the NIM1 gene using a full4ength cDNA clone as a probe.

[2] = system: Peronospora parasitica isolate Emwa; assay: Percent of plants showing P. parasitica Emwa surface conidia after chemical pretreatment; conditions: for Percent Infection - Emwa: P. parasitica inoculated 3 days after chemical treatment
Experimental: Mutant plants were treated with SA, INA, and BTH and then assayed for resistance to Peronospora parasitica.P. parasitica isolate ‘Emwa’ is a Pp. isolate that is compatible in the Ws ecotype.
(§1) Wild-type seeds and seeds for each of the nim1 alleles (nim1-1,-2,-3,-4,-5,-6) were sown onto MetroMix 300 growing media, covered with a transparent plastic dome, and placed at 4° C. in the dark for 3 days. After 3 days of 4° C. treatment, the plants were moved to a phytotron for 2 weeks. By approximately 2 weeks post-planting, germinated seedlings had produced 4 true leaves. Plants were then treated with H2O, 5 mM SA, 300 μM BTH, or 300 μM INA. Chemicals were applied as a fine mist to completely cover the seedlings using a chromnister. Water control plants were returned to the growing phytotron while the chemically treated plants were held in a separate but identical phytotron. At 3 days post-chemical application, water and chemically treated plants were inoculated with the compatible ‘Emwa’ isolate. ‘Noco’ inoculation was conducted on water treated plants only. Following inoculation, plants were covered with a clear plastic dome to maintain high humidity required for successful P. parasitica infection and placed in a growing chamber with 19° C. day/17° C. night temperatures and 8 h light/16 h dark cycles.
To determine the relative strength of the different nim1 alleles, each mutant was microscopically analyzed at various timepoints after inoculation for the growth of P. parasitica under normal growth conditions and following pretreatment with either SA, INA, or BTH. Under magnification, sporulation of the fungus could be observed at very early stages of disease development. The percentage of plants/pot showing sporulation at 5d, 6d, 7d, 1 id and 14d after inoculation was determined and the density of sporulation was also recorded.
P. parasitica was inoculated onto the plants three days after water or chemical treatment.

[3] = system: Peronospora parasitica isolate Emwa; assay: Infection severity rating after inoculation with Peronospora parasitica (Emwa) following chemical pretreatment
Experimental: as §1
WsWT indicates the Ws wild type parent line in which the nim1 alleles were found. The various nim1 alleles are indicated in the table and the NahG plant is indicated also.
NahG plants therefore serve as a kind of universal susceptibility control.

[4] = system: PR-1, PR-2 and PR-5; assay: Northern analysis of SAR gene expression after chemical treatment
Experimental: Plants were then treated with H2O, 5 mM SA, 300 FM BTH, or 300 FM INA. Chemicals were applied as a fine mist to completely cover the seedlings using a chromister. Water control plants were returned to the growing phytotron while the chemically treated plants were held in a separate but identical phytotron. At 3 days post-chemical application, water and chemically treated plants were inoculated with the compatible Emwa isolate. Noco inoculation was conducted on water treated plants only. Following inoculation, plants were covered with a clear plastic dome to maintain high humidity required for successful P. parasitica infection and placed in a growing chamber with 19° C. day/17° C. night temperatures and 8 h light/16 h dark cycles. RNA was extracted from plants 3 days after either water or chemical treatment, or 14 days after inoculation with the compatible P. parasitica Emwa isolate. The RNA was size-fractionated by agarose gel electrophoresis and transferred to GeneScreenPlus membranes (DuPont).
In FIG. 1, replicate blots were hybridized to Arabidopsis gene probes PR-1, PR-2 and PR-5 as described in Uknes et al. (1992).

## CSC(=O)c1cccc2nnsc12 [BTH]
[1]
  NIM1 (gene region 2) mRNA: induced
[2]; Ws WT plants, Day 0
  Percent Infection - Emwa: 0%
[2]; Ws WT plants, Day 5
  Percent Infection - Emwa: 0%
[2]; Ws WT plants, Day 6
  Percent Infection - Emwa: 0%
[2]; Ws WT plants, Day 7
  Percent Infection - Emwa: 0%
[2]; Ws WT plants, Day 11
  Percent Infection - Emwa: 0%
[2]; nim1-1 plants, Day 0
  Percent Infection - Emwa: 0%
[2]; nim1-1 plants, Day 5
  Percent Infection - Emwa: 1%
[2]; nim1-1 plants, Day 6
  Percent Infection - Emwa: 5%
[2]; nim1-1 plants, Day 7
  Percent Infection - Emwa: 30%
[2]; nim1-1 plants, Day 11
  Percent Infection - Emwa: 100%
[2]; nim1-2 plants, Day 0
  Percent Infection - Emwa: 0%
[2]; nim1-2 plants, Day 5
  Percent Infection - Emwa: 0%
[2]; nim1-2 plants, Day 6
  Percent Infection - Emwa: 25%
[2]; nim1-2 plants, Day 7
  Percent Infection - Emwa: 90%
[2]; nim1-2 plants, Day 11
  Percent Infection - Emwa: 100%
[2]; nim1-3 plants, Day 0
  Percent Infection - Emwa: 0%
[2]; nim1-3 plants, Day 5
  Percent Infection - Emwa: 15%
[2]; nim1-3 plants, Day 6
  Percent Infection - Emwa: 70%
[2]; nim1-3 plants, Day 7
  Percent Infection - Emwa: 100%
[2]; nim1-3 plants, Day 11
  Percent Infection - Emwa: 100%
[2]; nim1-4 plants, Day 0
  Percent Infection - Emwa: 0%
[2]; nim1-4 plants, Day 5
  Percent Infection - Emwa: 80%
[2]; nim1-4 plants, Day 6
  Percent Infection - Emwa: 100%
[2]; nim1-4 plants, Day 7
  Percent Infection - Emwa: 100%
[2]; nim1-4 plants, Day 11
  Percent Infection - Emwa: 100%
[2]; nim1-5 plants, Day 0
  Percent Infection - Emwa: 0%
[2]; nim1-5 plants, Day 5
  Percent Infection - Emwa: 0%
[2]; nim1-5 plants, Day 6
  Percent Infection - Emwa: 1%
[2]; nim1-5 plants, Day 7
  Percent Infection - Emwa: 1%
[2]; nim1-5 plants, Day 11
  Percent Infection - Emwa: 10%
[2]; nim1-6 plants, Day 0
  Percent Infection - Emwa: 0%
[2]; nim1-6 plants, Day 5
  Percent Infection - Emwa: 1%
[2]; nim1-6 plants, Day 6
  Percent Infection - Emwa: 90%
[2]; nim1-6 plants, Day 7
  Percent Infection - Emwa: 100%
[2]; nim1-6 plants, Day 11
  Percent Infection - Emwa: 100%
[2]; nim1 plants
  activity in nim1 plants: inactive
[3]; NahG plants
  response of plants to the inducer (disease resistance): very good response
[3]; NahG plants, Day 7 after inoculation
  Infection Severity - Emwa: 0
[3]; NahG plants, Day 11 after inoculation
  Infection Severity - Emwa: 0
[3]; Ws Wt plants, Day 7 after inoculation
  Infection Severity - Emwa: 0
[3]; Ws Wt plants, Day 11 after inoculation
  Infection Severity - Emwa: 0
[3]; Ws plants
  induced resistance to Emwa: very good resistance
[3]; nim1-1 plants, Day 7 after inoculation
  Infection Severity - Emwa: 2.5
[3]; nim1-1 plants, Day 11 after inoculation
  Infection Severity - Emwa: 4
[3]; nim1-2 plants, Day 7 after inoculation
  Infection Severity - Emwa: 3.5
[3]; nim1-2 plants, Day 11 after inoculation
  Infection Severity - Emwa: 4
[3]; nim1-3 plants, Day 7 after inoculation
  Infection Severity - Emwa: 3
[3]; nim1-3 plants, Day 11 after inoculation
  Infection Severity - Emwa: 3.5
[3]; nim1-4 plants, Day 7 after inoculation
  Infection Severity - Emwa: 4
[3]; nim1-4 plants, Day 11 after inoculation
  Infection Severity - Emwa: 5
[3]; nim1-5 plants, Day 7 after inoculation
  Infection Severity - Emwa: 1.5
[3]; nim1-5 plants, Day 11 after inoculation
  Infection Severity - Emwa: 2
[3]; nim1-6 plants, Day 7 after inoculation
  Infection Severity - Emwa: 3
[3]; nim1-6 plants, Day 11 after inoculation
  Infection Severity - Emwa: 4
[4]; nim1 plants, RNA gel blots FIGS. 1-3
  SAR and SAR gene expression (PR-1, PR-2, PR-5): induce neither SAR nor SAR gene expression
[4]; wild-type plants, RNA 3 days after chemical treatment (FIG. 3)
  PR-1 mRNA accumulation: accumulates to high levels
